Laboratory results taken from patent US8492568B2, “Chromane derivatives as TRPV3 modulators” (Glenmark Pharamceuticals S.A., priority 2008, dated 2013).

Target: Human TRPV3 (Homo sapiens (Human), UniProt Q8NET8)
Test: Screening for TRPV3 antagonist using the 45Calcium uptake assay
Format: cell-based
Details: 2-APB (500 μM) induced 45Ca uptake, human TRPV3 expressing CHO cells
Excerpt: The illustrative examples of the present invention are screened for TRPV3 activity according to a modified procedure described in Tóth, A., Kedei, N., Wang, Y. and Blumberg, P. M. Life Sciences (2003), 73, 487-498. The screening of the compounds can be carried out by other methods and procedures known to a person skilled in the art. Such screening methods may be found in (a) Hu, H.-Z. et al. J. Biol. Chem. (2004), 279, 35741-35747; (b) Smith, G. D. et al. Nature (2002), 418, 186-190; (c) Peier, A. M. et al. Science (2002), 296, 2046-2049.
Screening for TRPV3 Antagonist Using the ^45Calcium Uptake Assay:
The inhibition of TRPV3 receptor activation was followed as inhibition of 2-aminoethoxydiphenylborate (2-APB) induced cellular uptake of radioactive calcium. Test compounds were dissolved in dimethyl sulfoxide (DMSO) to prepare 20 mM stock solution and then diluted using plain medium with DMEM/F-12 containing 1.8 mM CaCl2 to get desired concentration. Final concentration of DMSO in the reaction was 0.5% (v/v). Human TRPV3 expressing CHO cells were grown in DMEM/F-12 medium with 10% FBS, 1% penicillin-streptomycin solution, 400 μg/ml of G-418. […] Radioactivity in the lysate was measured in Packardt Top count after addition of liquid scintillant. […] IC50 value was calculated from concentration response curve by nonlinear regression analysis using GraphPad PRISM software.

Human TRPV3, sequence (Q8NET8 whole entry): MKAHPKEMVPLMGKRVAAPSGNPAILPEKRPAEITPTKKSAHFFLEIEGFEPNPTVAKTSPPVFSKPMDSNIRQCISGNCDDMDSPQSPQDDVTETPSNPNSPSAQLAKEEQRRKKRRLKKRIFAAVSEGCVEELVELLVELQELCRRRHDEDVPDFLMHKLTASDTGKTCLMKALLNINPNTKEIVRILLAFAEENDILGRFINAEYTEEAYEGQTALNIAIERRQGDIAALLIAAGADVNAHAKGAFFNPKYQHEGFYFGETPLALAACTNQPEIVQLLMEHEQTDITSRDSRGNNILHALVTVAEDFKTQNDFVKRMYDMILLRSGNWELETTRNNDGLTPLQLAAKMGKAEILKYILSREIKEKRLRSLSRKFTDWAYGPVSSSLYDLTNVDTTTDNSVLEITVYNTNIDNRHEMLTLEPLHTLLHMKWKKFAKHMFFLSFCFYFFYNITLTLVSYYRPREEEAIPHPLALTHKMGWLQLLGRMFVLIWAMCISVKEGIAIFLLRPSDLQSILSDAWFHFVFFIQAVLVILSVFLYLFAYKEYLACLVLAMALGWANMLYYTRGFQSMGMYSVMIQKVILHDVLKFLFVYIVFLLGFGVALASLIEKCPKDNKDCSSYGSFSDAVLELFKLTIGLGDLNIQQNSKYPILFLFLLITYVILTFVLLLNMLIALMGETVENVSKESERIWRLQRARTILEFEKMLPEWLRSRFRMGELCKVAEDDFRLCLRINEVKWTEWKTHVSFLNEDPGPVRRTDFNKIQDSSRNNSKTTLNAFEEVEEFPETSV

- IC50: 725.3 n.M
Structure (SMILES): COc1cccc(CNC(=O)CC2CC3(CCC3)Oc3ccc(Cl)cc32)c1OC1CCCC1 (stereo not shown) [Example 2, 2-(6-Chloro-3,4-dihydrospiro[chromene-2,1′-cyclobutan]-4-yl)-N-(2-cyclopentyloxy-3-methoxybenzyl)acetamide]
